This note sets out measurements from patent publication US10508109B2 (priority 2015, dated 2019).

Structures can show the parent of a compound that is named as a salt. Where two headings read alike, the source gives them in different places.

The test system of assay [1] is CCD-18Co. Description: Cell-based assay, anti-proliferative activity (Cell Counting Kit-8, 72 hours). As to conditions: Homo sapiens, read-out: IC50 (μM) CCD-18Co. The procedure, abridged:
(§1)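 CCK-8 viability read 72 h after compound exposure over an 8-point series from 1.5625 to 100 micro-M plus zero. Seeding density 2,000–3,000 cells/well; IC50 from the dilution series.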
(In general: Tetrazolium assays rely on reduction of a dye to a coloured formazan, in cell work by metabolically active cells.)

Assay [2] has as its system PC14. The description is as above. The note with it: Homo sapiens, read-out: IC50 (μM) PC14. In outline: as §1
For assay [3], the system named is HCT-116. The description is as above. The note with it: Homo sapiens, read-out: IC50 (μM) HCT-116. The procedure, abridged:
as §1

The test system of assay [4] is HFL1. The description is as above. As to conditions: Homo sapiens, read-out: IC50 (μM) HFL1. The procedure, abridged:
as §1

Assay [5] has as its target SUV39H2 (Homo sapiens (Human), UniProt Q9H5I1). The note with it: read-out: IC50 (μM) Suv 39H2 assay.
Assay [6] has as its system A549. In words: Cell-based assay, anti-proliferative activity (Cell Counting Kit-8, 72 hours). The note with it: Homo sapiens, read-out: IC50 (μM) A549. The procedure, abridged: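 After compound exposure of cells in 96-well plates, growth was measured colorimetrically and converted into IC50 values.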
Setting [7] is: CCD-18Co cells, Cell Counting Kit-8, 72 hours.
The mark [8] stands for this setting: PC-14, PC14 cells, Cell Counting Kit-8, 72 hours.
The mark [9] stands for this setting: HCT-116 cells, Cell Counting Kit-8, 72 hours.
Where [10] appears, read: HFL1 cells, Cell Counting Kit-8, 72 hours.
[11] abbreviates: A549 cells, Cell Counting Kit-8, 72 hours.
Where [12] appears, read: CCD-18Co cells, 72 hours, Cell Counting Kit-8.
Where [13] appears, read: PC-14, PC14 cells, 72 hours, Cell Counting Kit-8.
The mark [14] stands for this setting: HCT-116 cells, 72 hours, Cell Counting Kit-8.
The mark [15] stands for this setting: HFL1 cells, 72 hours, Cell Counting Kit-8.
[16] abbreviates: A549 cells, 72 hours, Cell Counting Kit-8.

Sequence of SUV39H2 (Q9H5I1 whole entry): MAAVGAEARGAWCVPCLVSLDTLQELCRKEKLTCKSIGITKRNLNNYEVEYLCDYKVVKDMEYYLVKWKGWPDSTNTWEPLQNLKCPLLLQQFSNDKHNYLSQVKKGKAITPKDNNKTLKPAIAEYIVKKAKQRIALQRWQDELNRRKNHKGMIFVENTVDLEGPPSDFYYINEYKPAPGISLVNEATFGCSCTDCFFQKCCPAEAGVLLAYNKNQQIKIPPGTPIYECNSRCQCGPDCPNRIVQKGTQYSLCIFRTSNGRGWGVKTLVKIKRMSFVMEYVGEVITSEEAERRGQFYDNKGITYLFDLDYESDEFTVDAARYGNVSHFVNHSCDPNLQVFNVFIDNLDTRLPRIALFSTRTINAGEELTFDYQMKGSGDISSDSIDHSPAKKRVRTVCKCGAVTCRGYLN

For orientation: IC50 means the midpoint of a concentration-inhibition curve. For `COc1cc(OC)c(-c2cn3ccc(N4CCN(CCO)CC4)cc3n2)cc1Cl` [Example 43, 2-(4-(2-(5-chloro-2,4-dimethoxyphenyl)imidazo[1,2-a]pyridine-7-yl)piperazin-1-yl)ethanol dihydrochloride], the IC50 in assay [1] (CCD-18Co, 72 h) was 11 µM; in assay [2] (PC-14, 72 h), 9.8 µM; in assay [3] (HCT-116, 72 h), 14 µM; in assay [4] (HFL1, 72 h) it was 6.9 µM; in assay [5], 0.00854 µM; in assay [6] (A549, 72 h), 14 µM.

Consider `CCCS(=O)(=O)N1CCN(c2ccn3cc(-c4cc(Cl)c(OC)cc4OC)nc3c2)CC1` [Example 170, 2-(5-chloro-2,4-dimethoxyphenyl)-7-[4-(propylsulfonyl)piperazin-1-yl]imidazo[1,2-a]pyridine], for which the IC50 stood at 2.6 µM in assay [1] (setting [7]); 1.6 µM in assay [2] (setting [8]); 2.1 µM in assay [3] (setting [9]); 1.9 µM in assay [4] (setting [10]); 0.0219 µM in assay [5] (enzyme assay); 1.7 µM in assay [6] (setting [11]).

Regarding `COc1cc(OC)c(-c2cn3ccc(N4CCN(c5ccnc(N(C)C)n5)CC4)cc3n2)cc1Cl` [Example 297, 4-(4-(2-(5-chloro-2,4-dimethoxyphenyl)imidazo[1,2-a]pyridin-7-yl)-piperazin-1-yl)-N,N-dimethylpyrimidin-2-amine], the IC50 in assay [1] (setting [12]) is 0.72 µM; in assay [2] (setting [13]), 0.47 µM; in assay [3] (setting [14]), 0.33 µM; in assay [4] (setting [15]), 0.65 µM; in assay [5] (enzyme assay), 0.0342 µM; in assay [6] (setting [16]) it was 0.43 µM.

As to `COc1cc(OC)c(-c2cn3ccc(-c4ccc(C(=O)NCC(O)CN)cc4)cc3n2)cc1Cl` (stereo not drawn) [Example 256, N-(3-amino-2-hydroxypropyl)-4-(2-(5-chloro-2,4-dimethoxyphenyl)-imidazo[1,2-a]pyridin-7-yl)benzamide], the IC50 worked out at 10 µM in assay [1] (setting [12]); 10 µM in assay [2] (setting [13]); 10 µM in assay [3] (setting [14]); 10 µM in assay [4] (setting [15]); 0.0217 µM in assay [5] (enzyme assay); 10 µM in assay [6] (setting [16]).

With `COc1cc(OC)c(-c2cn3ccc(OC4CCN(S(=O)(=O)c5cccs5)CC4)cc3n2)cc1Cl` [Example 280, 2-(5-chloro-2,4-dimethoxyphenyl)-7-((1-(thiophen-2-ylsulfonyl)piperidin-4-yl)oxy)imidazo[1,2-a]pyridine], the IC50 in assay [1] (setting [12]) was 1.7 µM; in assay [2] (setting [13]), 0.8 µM; in assay [3] (setting [14]), 1.9 µM; in assay [4] (setting [15]), 1.6 µM; in assay [5] (enzyme assay), 0.0711 µM; in assay [6] (setting [16]), 2 µM.

As for `COC(=O)CCCN1CCN(c2ccn3cc(-c4cc(Cl)c(OC)cc4OC)nc3c2)CC1` [Example 237, methyl 4-(4-(2-(5-chloro-2,4-dimethoxyphenyl)imidazo[1,2-a]pyridine-7-yl)piperazin-1-yl)butanoate], the IC50 turned out to be 10 µM in assay [1] (setting [12]); 10 µM in assay [2] (setting [13]); 10 µM in assay [3] (setting [14]); 10 µM in assay [4] (setting [15]); 0.0113 µM in assay [5] (enzyme assay); 10 µM in assay [6] (setting [16]).

Regarding `COc1cc(OCCCN(C)C)c(-c2cn3ccc(N4CCC(NC(=O)OC(C)(C)C)CC4)cc3n2)cc1Cl` [Example 148, tert-butyl (1-(2-{5-chloro-2-[3-(dimethylamino)propoxy]-4-methoxyphenyl}imidazo[1,2-a]pyridin-7-yl)piperidin-4-yl)carbamate], the IC50 in assay [1] (setting [7]) was 0.78 µM; in assay [2] (setting [8]) it was 1.4 µM; in assay [3] (setting [9]), 1.3 µM; in assay [4] (setting [10]), 0.53 µM; in assay [5] (enzyme assay), 0.0373 µM; in assay [6] (setting [11]), 1.8 µM.

On to `COc1cc(C)c(-c2cn3ccc(N4CCN(S(=O)(=O)C5CC5)C(COCCN(C)C)C4)cc3n2)cc1Cl` (stereo not drawn) [Example 264, 2-((4-(2-(5-chloro-4-methoxy-2-methylphenyl)imidazo[1,2-a]pyridin-7-yl)-1-(cyclopropylsulfonyl)piperazin-2-yl)methoxy)-N,N-dimethylethanamine], for which the IC50 was found to be 5 µM in assay [1] (setting [12]); 4.5 µM in assay [2] (setting [13]); 8.5 µM in assay [3] (setting [14]); 4.7 µM in assay [4] (setting [15]); 0.07 µM in assay [5] (enzyme assay); 5.6 µM in assay [6] (setting [16]).

Turning to `COc1cc(OC)c(-c2cn3ccc(N4CCN(CCN5CCOCC5)CC4)cc3n2)cc1Br` [Example 131, 4-(2-(4-(2-(5-bromo-2,4-dimethoxyphenyl)imidazo[1,2-a]pyridin-7-yl)-piperazin-1-yl)ethyl)morpholine], the IC50 in assay [1] (setting [7]) was determined as 8.3 µM; in assay [2] (setting [8]), 6.8 µM; in assay [3] (setting [9]), 8.4 µM; in assay [4] (setting [10]), 7.3 µM; in assay [5] (enzyme assay) it was 0.00349 µM; in assay [6] (setting [11]), 8.3 µM.

As to `COc1cc(OC)c(-c2cn3ccc(C4=CCN(CCO)CC4)cc3n2)cc1Cl` [Example 134, 2-(4-(2-(5-chloro-2,4-dimethoxyphenyl)imidazo[1,2-a]pyridin-7-yl)-5,6-dihydropyridin-1(2H)-yl)ethanol], the IC50 in assay [1] (setting [7]) was determined as 5.4 µM; in assay [2] (setting [8]), 5.3 µM; in assay [3] (setting [9]), 6.8 µM; in assay [4] (setting [10]), 3.8 µM; in assay [5] (enzyme assay), 0.0576 µM; in assay [6] (setting [11]), 5 µM.

Regarding `COc1cc(OCCCN(C)C)c(-c2cn3ccc(N4CCN(S(C)(=O)=O)CC4)cc3n2)cc1Cl` [Example 155, 3-(4-chloro-5-methoxy-2-{7-[4-(methylsulfonyl)piperazin-1-yl]-imidazo[1,2-a]pyridin-2-yl}phenoxy)-N,N-dimethylpropan-1-amine], the IC50 in assay [1] (setting [7]) was 7.5 µM; in assay [2] (setting [8]), 3.8 µM; in assay [3] (setting [9]), 5.8 µM; in assay [4] (setting [10]), 5.5 µM; in assay [5] (enzyme assay) it was 0.0127 µM; in assay [6] (setting [11]), 7.5 µM.

`COc1cc(OC)c(-c2cn3cc(NCCN)c(N4CCCC4)cc3n2)cc1Cl` [Example 60, N^1-(2-(5-chloro-2,4-dimethoxyphenyl)-7-(pyrrolidin-1-yl)imidazo[1,2-a]-pyridin-6-yl)ethane-1,2-diamine]: the IC50 in assay [1] (CCD-18Co, 72 h) amounted to 6 µM; in assay [2] (PC-14, 72 h), 2.6 µM; in assay [3] (HCT-116, 72 h), 6.8 µM; in assay [4] (HFL1, 72 h), 2 µM; in assay [5] (enzyme assay), 0.0094 µM; in assay [6] (A549, 72 h), 6.8 µM.

For `COc1cc(OC)c(-c2cn3ccc(NC(=O)[C@@H]4CCCN4)cc3n2)cc1Cl` [Example 244, (S)—N-(2-(5-chloro-2,4-dimethoxyphenyl)imidazo[1,2-a]pyridin-7-yl)-pyrrolidine-2-carboxamide], the IC50 was 8.8 µM in assay [1] (setting [12]); 5.2 µM in assay [2] (setting [13]); 10 µM in assay [3] (setting [14]); 9.8 µM in assay [4] (setting [15]); 0.0533 µM in assay [5] (enzyme assay); 10 µM in assay [6] (setting [16]).

On to `COc1cc(OC)c(-c2cn3ccc(N4CCC(NC(C)=O)CC4)cc3n2)cc1Cl` [Example 124, N-{1-[2-(5-chloro-2,4-dimethoxyphenyl)imidazo[1,2-a]pyridin-7-yl]piperidin-4-yl}acetamide], for which the IC50 amounted to 3.1 µM in assay [1] (setting [7]); 1.9 µM in assay [2] (setting [8]); 1.9 µM in assay [3] (setting [9]); 3.1 µM in assay [4] (setting [10]); 0.00327 µM in assay [5] (enzyme assay); 2.2 µM in assay [6] (setting [11]).

For `COc1cc(OC)c(-c2cn3ccc(N4CCC(NC(=O)OC(C)(C)C)C4)cc3n2)cc1C#N` (stereo not drawn) [Example 71, tert-butyl {1-[2-(5-cyano-2,4-dimethoxyphenyl)imidazo[1,2-a]pyridin-7-yl]pyrrolidin-3-yl}carbamate], the IC50 in assay [1] (setting [7]) was found to be 3.2 µM; in assay [2] (setting [8]), 2 µM; in assay [3] (setting [9]), 1.9 µM; in assay [4] (setting [10]), 1.6 µM; in assay [5] (enzyme assay), 0.0075 µM; in assay [6] (setting [11]), 2.6 µM.

As to `CCS(=O)(=O)N1CCCN(c2ccn3cc(-c4cc(Cl)c(OC)cc4OC)nc3c2)CC1` [Example 206, 2-(5-chloro-2,4-dimethoxyphenyl)-7-[4-(ethylsulfonyl)-1,4-diazepan-1-yl]imidazo[1,2-a]pyridine], the IC50 was 2.9 µM in assay [1] (setting [7]); 1.6 µM in assay [2] (setting [8]); 3.3 µM in assay [3] (setting [9]); 2.3 µM in assay [4] (setting [10]); 0.00561 µM in assay [5] (enzyme assay); 2.6 µM in assay [6] (setting [11]).

On to `COc1cc(OC)c(-c2cn3ccc(N4CCN(c5ccccn5)CC4)cc3n2)cc1Cl` [Example 276, 2-(5-chloro-2,4-dimethoxyphenyl)-7-(4-(pyridin-2-yl)piperazin-1-yl)-imidazo[1,2-a]pyridine], for which the IC50 in assay [1] (setting [12]) stood at 1.1 µM; in assay [2] (setting [13]), 1.2 µM; in assay [3] (setting [14]) it was 0.71 µM; in assay [4] (setting [15]) it was 0.69 µM; in assay [5] (enzyme assay), 0.00774 µM; in assay [6] (setting [16]) it was 1.2 µM.
